Earlier results, collected in patent publication US8697115B2, “Method of improving antioxidant status of an infant” (Abbott Laboratories, priority 2002, dated 2014).

Tests used:
[1] = Food Chemicals Codex effective Jul. 1, 1996
[2] = capsule with both forms for 5 days prior to giving birth
[3] = α-tocopherol equivalents; from Vitamin E in Health and Disease, 1993
[4] = adults

Structure (SMILES)	Activity (IU/mg) [1] [IU/mg]	Activity as α-TE (mg/mg compound) [3] [mg/mg compound]	further results
Cc1c(C)c2c(c(C)c1O)CCC(C)(CCCC(C)CCCC(C)CCCC(C)C)O2 (racemic) [d,l-α-tocopherol, 2DL,4′DL,8′DL-α-tocopherol]	1.1	–	–
Cc1c(C)c2c(c(C)c1O)CC[C@@](C)(CCC[C@H](C)CCC[C@H](C)CCCC(C)C)O2 [RRR-α-tocopherol, 2R,4′R,8′R-α-tocopherol]	1.49	1.0	amount in placental cord blood relative to synthetic vitamin E [2]: ~3.5 times; concentration in the mother's own blood at delivery relative to synthetic vitamin E ([2]; in words): nearly twice; enrichment in VLDL secreted by the liver over all-rac-α-tocopherol [4]: 4 fold
CC(C)=CCC/C(C)=C/CC/C(C)=C/CC[C@]1(C)CCc2c(C)c(O)c(C)c(C)c2O1 [RRR-α-tocotrienol]	–	0.3	–
Cc1cc(O)c(C)c2c1O[C@](C)(CCC[C@H](C)CCC[C@H](C)CCCC(C)C)CC2 [RRR-β-tocopherol]	–	0.5	–
CC(C)=CCC/C(C)=C/CC/C(C)=C/CC[C@]1(C)CCc2c(C)c(O)cc(C)c2O1 [RRR-β-tocotrienol]	–	0.05	–
Cc1c(O)cc2c(c1C)O[C@](C)(CCC[C@H](C)CCC[C@H](C)CCCC(C)C)CC2 [RRR-γ-tocopherol]	–	0.1	–
Cc1cc(O)cc2c1O[C@](C)(CCC[C@H](C)CCC[C@H](C)CCCC(C)C)CC2 [RRR-δ-tocopherol]	–	0.03	–
CC(=O)Oc1c(C)c(C)c2c(c1C)CCC(C)(CCCC(C)CCCC(C)CCCC(C)C)O2 (stereo not drawn) [d,l-α-tocopherol acetate]	1.0	0.74	–
Cc1c(C)c2c(c(C)c1OC(=O)CCC(=O)O)CCC(C)(CCCC(C)CCCC(C)CCCC(C)C)O2 (stereo not drawn) [d,l-α-tocopherol acid succinate]	0.89	–	–
CC(=O)Oc1c(C)c(C)c2c(c1C)CC[C@@](C)(CCC[C@H](C)CCC[C@H](C)CCCC(C)C)O2 [d-α-tocopherol acetate]	1.36	–	preferential utilization compared to all-rac-α-tocopheryl acetate ([4]; in words): about twice
Cc1c(C)c2c(c(C)c1OC(=O)CCC(=O)O)CC[C@@](C)(CCC[C@H](C)CCC[C@H](C)CCCC(C)C)O2 [d-α-tocopherol acid succinate]	1.21	–	–
